The source of these data is ChEMBL document CHEMBL1909046, “DrugMatrix in vitro pharmacology data”.

Experiment [1] concerns the target C-C chemokine receptor type 5 (Homo sapiens, UniProt P51681). The class given is cell membranes, Membrane. The conditions noted are these: hek293. Also: in other assays of this panel Not Active means under 50% inhibition at 10 µM.
The target in experiment [2] is Glycine receptor (Rattus norvegicus, UniProt P22771+P24524+P07727+P20781). Type of experiment: cell membranes, Wistar, Spinal cord, Membrane. Also: in other assays of this panel Not Active means under 50% inhibition at 10 µM.
The target of experiment [3] is Carbonic anhydrase 2 (Homo sapiens, UniProt P00918). Briefly: DRUGMATRIX: Carbonic Anhydrase II enzyme inhibition (substrate: 4-Nitrophenyl acetate (4-NPA)). Type of experiment: tissue-based, Erythrocyte. The conditions noted are these: Not Active = under 50% inhibition at 10 µM.
For experiment [4], the target named is Vascular endothelial growth factor receptor 1 (Homo sapiens, UniProt P17948). The class given is cell-based. To be noted: huvec. Also: in other assays of this panel Not Active means under 50% inhibition at 10 µM.
Sequence of Vascular endothelial growth factor receptor 1 (P17948 whole entry): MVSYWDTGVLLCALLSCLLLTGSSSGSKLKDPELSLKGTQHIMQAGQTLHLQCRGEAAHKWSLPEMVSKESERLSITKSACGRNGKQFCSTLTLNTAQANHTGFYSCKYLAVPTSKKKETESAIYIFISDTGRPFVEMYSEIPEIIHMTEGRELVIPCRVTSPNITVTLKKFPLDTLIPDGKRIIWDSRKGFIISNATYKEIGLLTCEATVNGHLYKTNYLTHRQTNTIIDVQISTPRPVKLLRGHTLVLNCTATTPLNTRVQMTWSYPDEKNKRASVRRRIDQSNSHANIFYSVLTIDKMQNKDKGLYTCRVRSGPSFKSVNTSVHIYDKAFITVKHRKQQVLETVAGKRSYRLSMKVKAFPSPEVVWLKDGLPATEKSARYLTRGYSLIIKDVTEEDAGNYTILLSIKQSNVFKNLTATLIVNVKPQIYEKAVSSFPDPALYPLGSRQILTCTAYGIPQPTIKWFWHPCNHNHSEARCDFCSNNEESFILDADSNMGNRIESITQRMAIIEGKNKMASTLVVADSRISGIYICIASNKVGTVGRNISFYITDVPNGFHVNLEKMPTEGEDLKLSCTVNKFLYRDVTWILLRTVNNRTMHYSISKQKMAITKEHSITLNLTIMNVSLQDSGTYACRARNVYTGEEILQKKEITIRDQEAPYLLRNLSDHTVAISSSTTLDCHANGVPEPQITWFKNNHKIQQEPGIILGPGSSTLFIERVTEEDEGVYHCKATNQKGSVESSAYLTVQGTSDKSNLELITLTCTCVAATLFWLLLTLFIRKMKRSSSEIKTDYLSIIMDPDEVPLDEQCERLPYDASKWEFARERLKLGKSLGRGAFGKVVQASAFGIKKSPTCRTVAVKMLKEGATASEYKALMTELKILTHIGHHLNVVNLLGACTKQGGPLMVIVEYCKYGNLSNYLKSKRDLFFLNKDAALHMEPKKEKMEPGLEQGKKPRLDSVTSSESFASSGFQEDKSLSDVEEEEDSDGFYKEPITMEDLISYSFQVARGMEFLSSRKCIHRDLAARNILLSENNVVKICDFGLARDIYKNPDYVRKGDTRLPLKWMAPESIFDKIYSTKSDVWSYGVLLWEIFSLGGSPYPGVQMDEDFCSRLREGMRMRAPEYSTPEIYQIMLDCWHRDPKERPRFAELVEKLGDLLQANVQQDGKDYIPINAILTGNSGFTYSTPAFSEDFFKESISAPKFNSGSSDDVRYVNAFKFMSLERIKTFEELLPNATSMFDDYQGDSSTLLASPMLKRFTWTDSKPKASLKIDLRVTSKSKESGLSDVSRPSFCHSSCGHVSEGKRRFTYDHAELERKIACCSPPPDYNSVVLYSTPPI
Experiment [5] concerns the target T1, Caspase-1 (Homo sapiens, UniProt P29466).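 Also: Caspase-1 enzyme inhibition assay with a peptide substrate; in other assays of this panel Not Active means under 50% inhibition at 10 µM.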
T1 sequence (P29466 whole entry): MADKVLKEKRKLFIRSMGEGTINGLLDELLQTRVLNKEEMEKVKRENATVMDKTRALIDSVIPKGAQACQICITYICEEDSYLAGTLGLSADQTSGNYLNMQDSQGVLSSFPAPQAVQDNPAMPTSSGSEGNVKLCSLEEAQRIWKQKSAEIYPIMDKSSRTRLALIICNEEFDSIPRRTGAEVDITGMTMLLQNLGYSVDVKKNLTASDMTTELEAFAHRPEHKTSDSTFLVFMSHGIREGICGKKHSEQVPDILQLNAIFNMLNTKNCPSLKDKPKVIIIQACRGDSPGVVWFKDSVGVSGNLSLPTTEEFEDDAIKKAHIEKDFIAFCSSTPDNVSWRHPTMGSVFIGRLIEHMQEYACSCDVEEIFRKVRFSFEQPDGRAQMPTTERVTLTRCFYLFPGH
Also noted: species or system Escherichia coli.

Experiment [6] deals with T2, Thromboxane-A synthase (Homo sapiens, UniProt P24557).
T2 sequence (P24557 whole entry): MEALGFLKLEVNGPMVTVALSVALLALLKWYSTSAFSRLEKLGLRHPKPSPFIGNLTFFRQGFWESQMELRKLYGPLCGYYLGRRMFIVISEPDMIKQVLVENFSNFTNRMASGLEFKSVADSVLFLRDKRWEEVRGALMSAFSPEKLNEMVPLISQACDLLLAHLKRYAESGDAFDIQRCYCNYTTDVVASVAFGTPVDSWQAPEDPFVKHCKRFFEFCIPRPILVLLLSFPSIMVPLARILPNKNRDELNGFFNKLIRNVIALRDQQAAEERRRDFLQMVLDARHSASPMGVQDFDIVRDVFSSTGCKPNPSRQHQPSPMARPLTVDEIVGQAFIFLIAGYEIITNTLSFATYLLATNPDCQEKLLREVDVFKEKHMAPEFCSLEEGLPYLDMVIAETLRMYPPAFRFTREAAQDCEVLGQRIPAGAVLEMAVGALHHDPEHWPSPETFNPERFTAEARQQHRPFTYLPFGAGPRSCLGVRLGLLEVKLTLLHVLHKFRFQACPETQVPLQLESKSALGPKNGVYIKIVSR
Briefly: biochemical. Type of experiment: tissue-based, Platelet.

Experiment [7] deals with Nitric oxide synthase 1 (Rattus norvegicus, UniProt P29476). The class given is tissue-based, Cerebellum.
Sequence of Nitric oxide synthase 1 (P29476 whole entry): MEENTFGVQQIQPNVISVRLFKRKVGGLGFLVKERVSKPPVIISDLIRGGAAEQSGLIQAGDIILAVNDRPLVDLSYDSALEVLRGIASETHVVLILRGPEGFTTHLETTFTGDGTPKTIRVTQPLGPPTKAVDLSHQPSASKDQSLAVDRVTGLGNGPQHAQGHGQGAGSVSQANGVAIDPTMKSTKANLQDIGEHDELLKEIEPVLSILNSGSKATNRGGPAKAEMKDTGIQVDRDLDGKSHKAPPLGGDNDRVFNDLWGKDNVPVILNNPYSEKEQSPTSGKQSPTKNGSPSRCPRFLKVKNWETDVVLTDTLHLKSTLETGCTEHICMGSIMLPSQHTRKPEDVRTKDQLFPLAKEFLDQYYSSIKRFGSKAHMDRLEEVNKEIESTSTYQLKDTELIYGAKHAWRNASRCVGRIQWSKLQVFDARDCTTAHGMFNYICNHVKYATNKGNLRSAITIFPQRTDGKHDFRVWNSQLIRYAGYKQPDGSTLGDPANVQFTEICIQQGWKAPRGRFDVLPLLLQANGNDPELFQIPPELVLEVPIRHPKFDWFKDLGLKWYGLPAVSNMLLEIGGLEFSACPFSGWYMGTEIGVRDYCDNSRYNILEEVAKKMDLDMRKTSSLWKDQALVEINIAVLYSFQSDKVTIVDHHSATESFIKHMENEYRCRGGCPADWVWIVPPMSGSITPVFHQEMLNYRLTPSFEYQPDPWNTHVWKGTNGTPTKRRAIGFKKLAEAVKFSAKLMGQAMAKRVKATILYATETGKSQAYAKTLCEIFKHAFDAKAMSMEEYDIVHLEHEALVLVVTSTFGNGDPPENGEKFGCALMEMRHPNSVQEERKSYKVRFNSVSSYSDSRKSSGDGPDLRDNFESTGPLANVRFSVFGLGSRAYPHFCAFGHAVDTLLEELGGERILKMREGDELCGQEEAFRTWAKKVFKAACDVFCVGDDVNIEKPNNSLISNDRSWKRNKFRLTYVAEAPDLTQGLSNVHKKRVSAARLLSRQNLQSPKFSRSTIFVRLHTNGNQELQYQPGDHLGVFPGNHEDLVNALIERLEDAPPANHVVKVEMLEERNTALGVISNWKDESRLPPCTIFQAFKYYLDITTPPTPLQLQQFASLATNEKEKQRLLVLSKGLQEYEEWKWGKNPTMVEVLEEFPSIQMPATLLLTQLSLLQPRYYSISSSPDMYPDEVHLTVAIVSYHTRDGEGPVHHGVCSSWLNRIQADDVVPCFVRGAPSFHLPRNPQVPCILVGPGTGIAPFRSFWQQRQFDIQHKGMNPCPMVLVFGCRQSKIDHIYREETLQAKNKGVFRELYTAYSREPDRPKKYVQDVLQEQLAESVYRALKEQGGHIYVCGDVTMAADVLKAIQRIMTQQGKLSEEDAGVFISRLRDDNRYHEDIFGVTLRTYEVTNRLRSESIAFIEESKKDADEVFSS
In experiment [8] the target is T3, D(4) dopamine receptor (Homo sapiens, UniProt P21917).
T3 sequence (P21917 whole entry): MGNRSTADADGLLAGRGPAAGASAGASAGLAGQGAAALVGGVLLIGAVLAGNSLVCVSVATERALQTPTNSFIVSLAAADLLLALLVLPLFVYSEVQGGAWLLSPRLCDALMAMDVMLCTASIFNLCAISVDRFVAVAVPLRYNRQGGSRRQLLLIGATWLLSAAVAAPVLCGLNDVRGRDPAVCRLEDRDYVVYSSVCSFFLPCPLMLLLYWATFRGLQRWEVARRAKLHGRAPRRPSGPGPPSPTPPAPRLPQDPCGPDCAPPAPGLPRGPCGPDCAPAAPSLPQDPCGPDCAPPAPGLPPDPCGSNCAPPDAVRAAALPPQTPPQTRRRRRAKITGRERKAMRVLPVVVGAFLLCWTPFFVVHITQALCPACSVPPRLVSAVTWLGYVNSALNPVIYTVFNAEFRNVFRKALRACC
As to the kind of experiment: DRUGMATRIX: Dopamine D4.2 radioligand binding (ligand: [3H] Spiperone). The conditions noted are these: Not Active = under 50% inhibition at 10 µM; for Ki: read-out: Ki. Type of experiment: cell membranes, CHO-K1, Membrane.

The target in experiment [9] is Sodium-dependent dopamine transporter (Homo sapiens, UniProt Q01959). Briefly: DRUGMATRIX: Dopamine Transporter radioligand binding (ligand: [125I] RTI-55). The conditions noted are these: Not Active = under 50% inhibition at 10 µM. Type of experiment: cell membranes, CHO-K1, Membrane.
Sequence of Sodium-dependent dopamine transporter (Q01959 whole entry): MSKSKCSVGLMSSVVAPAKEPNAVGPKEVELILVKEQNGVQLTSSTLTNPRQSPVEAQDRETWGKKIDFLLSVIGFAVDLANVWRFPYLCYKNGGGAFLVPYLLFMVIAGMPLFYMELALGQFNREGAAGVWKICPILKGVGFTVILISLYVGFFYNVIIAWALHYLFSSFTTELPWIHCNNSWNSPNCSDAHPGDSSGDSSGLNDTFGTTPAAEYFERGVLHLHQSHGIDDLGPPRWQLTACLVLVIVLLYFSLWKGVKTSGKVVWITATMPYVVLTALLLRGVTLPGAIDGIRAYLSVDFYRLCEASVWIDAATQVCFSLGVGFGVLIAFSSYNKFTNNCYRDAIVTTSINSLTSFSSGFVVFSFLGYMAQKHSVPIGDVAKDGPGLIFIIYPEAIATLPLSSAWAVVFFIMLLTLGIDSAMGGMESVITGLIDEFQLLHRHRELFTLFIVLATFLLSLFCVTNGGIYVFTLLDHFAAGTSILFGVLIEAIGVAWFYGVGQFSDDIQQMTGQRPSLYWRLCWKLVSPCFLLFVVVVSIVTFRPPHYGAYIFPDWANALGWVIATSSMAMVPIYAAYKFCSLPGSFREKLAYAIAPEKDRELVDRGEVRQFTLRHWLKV
For experiment [10], the target named is T4, Alpha-2C adrenergic receptor (Homo sapiens, UniProt P18825).
T4 sequence (P18825 whole entry): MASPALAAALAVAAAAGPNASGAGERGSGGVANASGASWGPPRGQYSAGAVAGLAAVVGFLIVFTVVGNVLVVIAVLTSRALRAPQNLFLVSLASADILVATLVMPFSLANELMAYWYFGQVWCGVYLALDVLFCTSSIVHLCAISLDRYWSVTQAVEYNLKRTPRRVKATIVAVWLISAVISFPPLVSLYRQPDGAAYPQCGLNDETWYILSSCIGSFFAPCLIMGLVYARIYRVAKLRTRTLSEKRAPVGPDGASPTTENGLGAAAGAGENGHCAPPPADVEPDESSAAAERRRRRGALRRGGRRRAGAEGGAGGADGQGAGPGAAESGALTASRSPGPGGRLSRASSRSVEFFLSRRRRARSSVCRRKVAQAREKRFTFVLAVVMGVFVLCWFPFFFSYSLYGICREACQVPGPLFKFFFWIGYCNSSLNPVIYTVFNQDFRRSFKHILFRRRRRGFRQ
As to the kind of experiment: DRUGMATRIX: Adrenergic Alpha-2C radioligand binding (ligand: [3H] MK-912). Type of experiment: cell membranes, Sf9, Membrane.

Experiment [11] is described as follows: DRUGMATRIX: Sigma2 radioligand binding (ligand: [3H] Ifenprodil). Type of experiment: cell membranes, Rattus norvegicus, Wistar, Brain, Membrane. To be noted: Not Active = under 50% inhibition at 10 µM.
A short description of experiment [12]: DRUGMATRIX: Atrial Natriuretic Factor (ANF) radioligand binding (ligand: [125I] ANF (rat)). The class given is cell membranes, Cavia porcellus, Dunkin-Hartley, Adrenal gland, Membrane. The conditions noted are these: Not Active = under 50% inhibition at 10 µM.
A short description of experiment [13]: DRUGMATRIX: Leukotriene, BLT (LTB4) radioligand binding (ligand: [3H]LTB4). Type of experiment: cell membranes, Membrane. To be noted: u-937; Not Active = under 50% inhibition at 10 µM.
Experiment [14] in a line: DRUGMATRIX: Imidazoline I2, Central radioligand binding (ligand: [3H] Idazoxan). The class given is cell membranes, Rattus norvegicus, Wistar, Cerebral cortex, Membrane. To be noted: Not Active = under 50% inhibition at 10 µM.

Sequence of C-C chemokine receptor type 5 (P51681 whole entry): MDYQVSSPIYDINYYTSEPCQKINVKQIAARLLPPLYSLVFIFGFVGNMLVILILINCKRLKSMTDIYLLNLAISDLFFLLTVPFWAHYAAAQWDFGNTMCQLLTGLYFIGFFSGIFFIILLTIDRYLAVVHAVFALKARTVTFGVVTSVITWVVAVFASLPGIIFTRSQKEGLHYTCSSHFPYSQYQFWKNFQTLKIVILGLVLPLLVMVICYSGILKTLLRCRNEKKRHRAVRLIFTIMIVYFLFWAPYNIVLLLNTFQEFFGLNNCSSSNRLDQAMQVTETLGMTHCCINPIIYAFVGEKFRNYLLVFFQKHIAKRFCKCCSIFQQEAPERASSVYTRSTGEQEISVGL

On to `COc1ccc(CCN2CCC(Nc3nc4ccccc4n3Cc3ccc(F)cc3)CC2)cc1` [ASTEMIZOLE], for which the IC50 result in experiment [1], in experiment [2], in [3] (erythrocyte), in experiment [4], in experiment [5] and in experiment [6] (platelet) was “Not Active” in each case. Besides, in [7], the IC50 result was “Not Active”.
Take `CN(C)CCCN1c2ccccc2CCc2ccc(Cl)cc21` [CLOMIPRAMINE]: the IC50 result in [1], in [8] (cho-k1), in experiment [2], in experiment [3] (erythrocyte), in experiment [4] and in experiment [5] was “Not Active” throughout. Further, the IC50 result in [6] (platelet) and in [7] was “Not Active” in each case.
As for `Clc1ccccc1C(c1ccccc1)(c1ccccc1)n1ccnc1` [CLOTRIMAZOLE], the IC50 result is “Not Active” in experiment [1]; 5.58 µM in experiment [9] (read-out: IC50); 19.9 µM in experiment [8] (read-out: IC50); “Not Active” in experiment [2]; 30.1 µM in [3] (read-out: IC50); “Not Active” in [4]. In addition, the IC50 entry in experiment [5] is “Not Active”; in experiment [6] (read-out: IC50) it was 0.014 µM; in experiment [7], “Not Active”. Further, the Ki amounted to 4.43 µM in experiment [9] (read-out: Ki) and 6.99 µM in experiment [8].
For `O=C(CCCN1CCC(O)(c2ccc(Cl)cc2)CC1)c1ccc(F)cc1` [HALOPERIDOL], the IC50 result in [1], in [2], in [3] (erythrocyte), in experiment [4], in experiment [5] and in experiment [6] (platelet) was “Not Active” throughout. For the same compound, in [7], the IC50 entry is on record as “Not Active”.
As to `CN1CCN2c3ccccc3Cc3ccccc3C2C1` (stereo not given) [MIANSERIN], the IC50 entry in [1], in experiment [9] (cho-k1), in experiment [8] (cho-k1), in experiment [2], in experiment [3] (erythrocyte) and in experiment [4] was “Not Active” each time. The IC50 entry in experiment [5] is “Not Active”; in experiment [6] (platelet), “Not Active”; in [7] it was “Not Active”; in experiment [10] (read-out: IC50) it was 0.179 µM. Moreover, the Ki in experiment [10] (read-out: Ki) was determined as 0.026 µM.
Take `CC(C)(O)c1ccccc1CC[C@@H](SCC1(CC(=O)O)CC1)c1cccc(/C=C/c2ccc3ccc(Cl)cc3n2)c1` [MONTELUKAST]: the IC50 result in experiment [1], in experiment [8] (cho-k1), in [2], in experiment [3] (erythrocyte), in experiment [4] and in experiment [5] was “Not Active” each time. Moreover, the 50% inhibitory concentration (IC50) was 1.53 µM in [6] (read-out: IC50) and “Not Active” in experiment [7].
`Nc1ccc(S(N)(=O)=O)cc1` [SULFANILAMIDE]: the IC50 entry in experiment [1], in experiment [9] (cho-k1), in experiment [11], in experiment [8] (cho-k1), in [2] and in experiment [12] was “Not Active” each time. Also, the IC50 result in experiment [4], in [5], in experiment [6] (platelet), in [13], in [7] and in [14] was “Not Active” in each case. Further, the IC50 entry in [10] (sf9) was “Not Active”. Also, the Ki result in [11], in experiment [12], in [13] and in experiment [14] was “Not Active” each time.
For the compound `CSc1ccc2c(c1)N(CCC1CCCCN1C)c1ccccc1S2` (stereo not given) [THIORIDAZINE], the IC50 entry in experiment [1] is “Not Active”; in experiment [8] (read-out: IC50) it was 1.47 µM; in experiment [2], “Not Active”; in [3] (erythrocyte), “Not Active”; in experiment [4], “Not Active”; in experiment [5], “Not Active”. Besides, the IC50 entry in experiment [6] (platelet) and in experiment [7] was “Not Active” each time. Also, the Ki in experiment [8] worked out at 0.515 µM.
Regarding `COc1cccc(C2(O)CCCCC2CN(C)C)c1` (stereo not given) [TRAMADOL], the IC50 result in experiment [1], in experiment [9] (cho-k1), in [8] (cho-k1), in experiment [2], in experiment [3] (erythrocyte) and in experiment [4] was “Not Active” throughout. Moreover, the IC50 entry in experiment [5], in experiment [6] (platelet), in experiment [7] and in experiment [10] (sf9) was “Not Active” in each case.
On to `COC(=O)[C@@H]1[C@H]2C[C@H]3c4[nH]c5ccccc5c4CCN3C[C@@H]2CC[C@@H]1O` [YOHIMBINE], for which the IC50 result in experiment [1], in experiment [9] (cho-k1), in experiment [11], in experiment [8] (cho-k1), in experiment [2] and in experiment [3] (erythrocyte) was “Not Active” in each case. In addition, the IC50 result in [12], in experiment [4], in experiment [5], in experiment [6] (platelet), in [13] and in [7] was “Not Active” in each case. The IC50 in [14] (read-out: IC50) stood at 0.157 µM. In addition, the Ki result in experiment [11] is “Not Active”; in experiment [12], “Not Active”; in [13] it was “Not Active”; in experiment [14] (read-out: Ki), 0.105 µM.
